SMILES strings stand for the structures. Where a SMILES comes first, the peptide text is derived from it. The star is where a group is joined. Cbz = O=C(OCc1ccccc1)*

The first test addresses T1, Endothelin-converting enzyme 1 (Homo sapiens) (UniProt P42892).
T1 sequence (whole entry): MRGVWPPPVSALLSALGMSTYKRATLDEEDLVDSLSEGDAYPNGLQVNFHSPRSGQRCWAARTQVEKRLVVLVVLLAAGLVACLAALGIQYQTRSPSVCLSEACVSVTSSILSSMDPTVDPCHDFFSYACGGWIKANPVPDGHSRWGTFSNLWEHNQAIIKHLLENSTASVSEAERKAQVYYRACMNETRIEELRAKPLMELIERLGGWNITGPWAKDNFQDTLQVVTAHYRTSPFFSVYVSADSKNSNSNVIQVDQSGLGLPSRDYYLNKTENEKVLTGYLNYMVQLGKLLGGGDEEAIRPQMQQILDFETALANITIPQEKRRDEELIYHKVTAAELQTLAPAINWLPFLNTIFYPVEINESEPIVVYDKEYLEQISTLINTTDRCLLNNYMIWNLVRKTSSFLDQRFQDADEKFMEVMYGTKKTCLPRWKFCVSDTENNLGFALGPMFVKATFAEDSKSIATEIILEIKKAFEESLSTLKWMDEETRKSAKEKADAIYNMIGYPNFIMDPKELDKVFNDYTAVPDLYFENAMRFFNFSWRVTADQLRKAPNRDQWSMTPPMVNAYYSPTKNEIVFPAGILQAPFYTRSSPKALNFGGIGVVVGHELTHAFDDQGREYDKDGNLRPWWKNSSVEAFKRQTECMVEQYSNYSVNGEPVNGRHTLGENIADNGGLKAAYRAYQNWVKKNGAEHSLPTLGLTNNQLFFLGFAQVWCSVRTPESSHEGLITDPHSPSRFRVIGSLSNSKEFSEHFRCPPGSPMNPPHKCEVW
Description: Compound was tested in vitro for percent inhibition of a putative Endothelin-converting enzyme at 100 uM partially purified from rabbit lung membrane. The format is tissue-based. To be noted: Oryctolagus cuniculus, target entry is the homologue from another species.
Usually inhibition stands for the drop in the measured response relative to a control, in per cent. Read a high inhibition as a response far below the control. On to `CC(C)C[C@H](NC(=O)[C@H](CS)NC(=O)OCc1ccccc1)C(=O)N[C@@H](Cc1c[nH]c2ccccc12)C(=O)O` (Cbz-Cys-Leu-Trp-OH), for which the inhibition came out at 75%.

Take `COC(=O)[C@H](Cc1c[nH]c2ccccc12)NC(=O)[C@H](CC(C)C)NC(=O)[C@H](CS)NC(=O)OCc1ccccc1` (Cbz-Cys-Leu-Trp-OMe): the inhibition came to 83%.

`COC(=O)[C@H](CC(C)C)NC(=O)[C@H](CS)NC(=O)OCc1ccccc1` had an inhibition of 89%. Same read-out and setting: the value for `O=C(N[C@@H](CS)C(=O)N[C@@H](Cc1c[nH]c2ccccc12)C(=O)O)OCc1ccccc1` (Cbz-Cys-Trp-OH) was 90%; that for `COC(=O)[C@H](Cc1c[nH]c2ccccc12)NC(=O)[C@H](CS)NC(=O)OCc1ccccc1` (Cbz-Cys-Trp-OMe) was 93%.

Another test concerns the target T2, Thermolysin (Bacillus thermoproteolyticus, UniProt P00800).
T2 sequence (P00800 whole entry): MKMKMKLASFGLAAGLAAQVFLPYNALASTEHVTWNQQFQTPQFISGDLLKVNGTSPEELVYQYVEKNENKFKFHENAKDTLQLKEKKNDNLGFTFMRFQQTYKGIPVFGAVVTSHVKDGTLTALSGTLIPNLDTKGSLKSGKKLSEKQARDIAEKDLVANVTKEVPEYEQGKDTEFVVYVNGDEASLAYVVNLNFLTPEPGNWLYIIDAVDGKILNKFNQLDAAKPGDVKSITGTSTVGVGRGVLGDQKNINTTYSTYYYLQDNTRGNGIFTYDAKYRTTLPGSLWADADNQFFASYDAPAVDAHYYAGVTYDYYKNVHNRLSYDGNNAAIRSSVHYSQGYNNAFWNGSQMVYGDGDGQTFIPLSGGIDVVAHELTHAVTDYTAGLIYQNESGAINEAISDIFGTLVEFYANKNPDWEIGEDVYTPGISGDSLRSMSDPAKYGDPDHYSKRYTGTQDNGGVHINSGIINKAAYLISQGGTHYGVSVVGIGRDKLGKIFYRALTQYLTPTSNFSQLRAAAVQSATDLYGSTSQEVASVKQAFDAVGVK
Nature of the test: Compound was tested in vitro for inhibitory activity against thermolysin.
Details: not given
A word on the IC50: it is the concentration that gives 50% inhibition. With `CC(C)C[C@H](C(=O)NO)C(=O)N[C@@H](C)C(=O)NCC(N)=O`, the midpoint of inhibition, the IC50, lay at 64 nM.
